Measured values published in paper doi:10.1101/2025.03.30.646166v1 (biorxiv, 2025).

Target: T1, human USP18 residues 52-372 (recombinant) (Homo sapiens, UniProt Q9UMW8)
T1 sequence (Q9UMW8 52-372): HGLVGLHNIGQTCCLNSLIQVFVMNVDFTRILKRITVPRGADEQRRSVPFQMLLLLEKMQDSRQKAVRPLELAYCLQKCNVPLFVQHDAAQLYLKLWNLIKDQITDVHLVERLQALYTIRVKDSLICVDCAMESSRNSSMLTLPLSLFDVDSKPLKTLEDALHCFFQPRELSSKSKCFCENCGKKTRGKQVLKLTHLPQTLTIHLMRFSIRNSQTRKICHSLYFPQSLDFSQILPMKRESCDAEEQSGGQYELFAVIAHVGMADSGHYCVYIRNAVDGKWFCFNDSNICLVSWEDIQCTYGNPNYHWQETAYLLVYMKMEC
Assay: fluorogenic ISG15ct-rhodamine cleavage, dose-response
Type: biochemical

IC50: 14.1 ± 1.6 µM
Structure (SMILES): Cc1ccc2[nH]c3c(c2c1)CN(C(=O)c1cc(-c2ccccc2)[nH]n1)CC3 [compound 8655, ZHAWOC8655]
